# According to article doi:10.1101/819920v2 (biorxiv, 2020):
# Target: YegI (Escherichia coli, UniProt Q8X7J8)
# Test: biochemical
# Sequence of YegI (Q8X7J8 whole entry): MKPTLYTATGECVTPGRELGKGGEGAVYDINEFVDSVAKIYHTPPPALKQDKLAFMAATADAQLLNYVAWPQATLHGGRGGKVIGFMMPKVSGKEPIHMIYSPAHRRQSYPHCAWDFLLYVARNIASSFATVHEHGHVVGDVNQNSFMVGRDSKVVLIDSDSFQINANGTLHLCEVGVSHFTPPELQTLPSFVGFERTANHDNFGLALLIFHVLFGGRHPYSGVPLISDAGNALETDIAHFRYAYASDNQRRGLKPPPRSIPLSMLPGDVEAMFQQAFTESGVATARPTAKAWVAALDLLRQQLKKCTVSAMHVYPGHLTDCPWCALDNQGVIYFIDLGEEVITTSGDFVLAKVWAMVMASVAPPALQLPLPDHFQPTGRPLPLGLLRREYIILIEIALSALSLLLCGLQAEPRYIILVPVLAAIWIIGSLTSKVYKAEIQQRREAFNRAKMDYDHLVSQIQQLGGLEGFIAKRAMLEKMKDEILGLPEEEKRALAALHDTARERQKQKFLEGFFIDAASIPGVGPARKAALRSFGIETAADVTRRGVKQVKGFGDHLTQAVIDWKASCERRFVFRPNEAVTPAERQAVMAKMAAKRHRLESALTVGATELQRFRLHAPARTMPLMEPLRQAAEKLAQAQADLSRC
smiles,measurement,value
CN[C@@H]1C[C@H]2O[C@@](C)([C@@H]1OC)n1c3ccccc3c3c4c(c5c6ccccc6n2c5c31)C(=O)NC4 [staurosporine],IC50,~50 µM
